Source: US9394300B2, “Quinolone derivatives” (Cadila Healthcare Limited, priority 2012, dated 2016)

What was measured:
C57 Mice [1] = test: Estimating circulating EPO release in mice (plasma EPO by mouse EPO ELISA); type: in vivo; conditions: plasma six hours after administration, EPO in control = 62 ng/mL
Method: (1) Protocol for Estimating Circulating EPO Release in Mice
C57 Mice were administered various doses (10 mg/kg, 30 mg/kg, 50 mg/kg, 100 mg/kg) of compounds of the present invention by oral gavage at 10 ml/kg. Six hours after compound administration, mice were bled by retro-orbital puncture, under light ether anesthesia in microfuge tubes containing 2% EDTA (10 μl/100 μl of blood). Plasma was separated and analyzed for EPO content by mouse EPO ELISA.

C57 Mice [2] = test: Estimating hemoglobin levels in mice; type: in vivo; conditions: oral once daily for 7 consecutive days at 20 mg/kg, whole blood on 8th day
Method: (2) Protocol for Estimating Hemoglobin Levels in Mice
C57 mice were administered compounds of the present invention at 10 ml/kg by oral route daily once in the morning for 7 consecutive days at 20 mg/kg. On 8th day animals were bled by retro-orbital puncture under light ether anesthesia in microfuge tubes containing 2% EDTA (10 μl/100 μl of blood) for whole blood. Hemoglobin, Reticulocyte count and RBC count were measured using standard procedures.

| SMILES | Hemoglobin (g/dL) 20 mg/kg compound (C57 Mice [2]) [g/dL] | further results |
| --- | --- | --- |
| O=C(O)CNC(=O)c1c(O)c2ccccc2n(OCc2ccccc2)c1=O [Example 1, 2-(1-(benzyloxy)-4-hydroxy-2-oxo-1,2-dihydroquinoline-3-carboxamido)acetic acid] | – | EPO (ng/mL) oral gavage 100 mg/kg (C57 Mice [1]): 7118 ng/mL |
| C=CCOn1c(=O)c(C(=O)NCC(=O)O)c(O)c2cc(Oc3ccccc3)ccc21 [Example 8, 2-(1-(allyloxy)-4-hydroxy-2-oxo-6-phenoxy-1,2-dihydroquinoline-3-carboxamido)acetic acid] | 15.8 | – |
| C=CCOn1c(=O)c(C(=O)NCC(=O)O)c(O)c2sccc21 [Example 10, 2-(4-(allyloxy)-7-hydroxy-5-oxo-4,5-dihydrothieno[3,2-b]pyridine-6-carboxamido)acetic acid] | 13.8 | – |
| COn1c(=O)c(C(=O)NCC(=O)O)c(O)c2ccccc21 [Example 11, 2-(4-hydroxy-1-methoxy-2-oxo-1,2-dihydroquinoline-3-carboxamido)acetic acid] | – | EPO (ng/mL) oral gavage 100 mg/kg (C57 Mice [1]): 1593 ng/mL |
| O=C(O)CNC(=O)c1c(O)c2ccccc2n(OCc2ccc(C(F)(F)F)cc2)c1=O [Example 12, 2-(4-hydroxy-2-oxo-1-((4-(trifluoromethyl)benzyl)oxy)-1,2-dihydroquinoline-3-carboxamido)acetic acid] | – | EPO (ng/mL) oral gavage 100 mg/kg (C57 Mice [1]): 7056 ng/mL |
| O=C(O)CNC(=O)c1c(O)c2ccccc2n(OCc2c(F)cccc2F)c1=O [Example 16, 2-(1-((2,6-difluorobenzyl)oxy)-4-hydroxy-2-oxo-1,2-dihydroquinoline-3-carboxamido)acetic acid] | – | EPO (ng/mL) oral gavage 10 mg/kg (C57 Mice [1]; oral gavage 10 mg/kg): 100 ng/mL; EPO (ng/mL) oral gavage 50 mg/kg (C57 Mice [1]): 8043 ng/mL |
| O=C(O)CNC(=O)c1c(O)c2ccc(Cl)cc2n(OCc2c(F)cccc2F)c1=O [Example 20, 2-(7-chloro-1-((2,6-difluorobenzyl)oxy)-4-hydroxy-2-oxo-1,2-dihydroquinoline-3-carboxamido)acetic acid] | – | EPO (ng/mL) oral gavage 50 mg/kg (C57 Mice [1]): 3797 ng/mL |
| CC(C)On1c(=O)c(C(=O)NCC(=O)O)c(O)c2ccccc21 [Example 25, 2-(4-hydroxy-1-isopropoxy-2-oxo-1,2-dihydroquinoline-3-carboxamido)acetic acid] | 14.9 | – |
| CC(C)COn1c(=O)c(C(=O)NCC(=O)O)c(O)c2ccccc21 [Example 28, 2-(4-hydroxy-1-isobutoxy-2-oxo-1,2-dihydroquinoline-3-carboxamido)acetic acid] | 16.9 | – |
| O=C(O)CNC(=O)c1c(O)c2nccnc2n(OCc2c(F)cccc2F)c1=O [Example 36, 2-(5-((2,6-difluorobenzyl)oxy)-8-hydroxy-6-oxo-5,6-dihydropyrido[2,3-b]pyrazine-7-carboxamido)acetic acid] | 14.2 | – |
| CCC(CC)On1c(=O)c(C(=O)NCC(=O)O)c(O)c2ccccc21 [Example 38, 2-(4-hydroxy-2-oxo-1-(pentan-3-yloxy)-1,2-dihydroquinoline-3-carboxamido)acetic acid] | 15.8 | – |
| CCCOn1c(=O)c(C(=O)NCC(=O)O)c(O)c2scc(C)c21 [Example 40, 2-(7-hydroxy-3-methyl-5-oxo-4-propoxy-4,5-dihydrothieno[3,2-b]pyridine-6-carboxamido)acetic acid] | 16.1 | – |
| Cc1csc2c(O)c(C(=O)NCC(=O)O)c(=O)n(OCc3c(F)cccc3F)c12 [Example 42, 2-(4-((2,6-difluorobenzyl)oxy)-7-hydroxy-3-methyl-5-oxo-4,5-dihydrothieno[3,2-b]pyridine-6-carboxamido)acetic acid] | 16.1 | – |
| O=C(O)CNC(=O)c1c(O)c2ccccc2n(OCC2CCCCC2)c1=O [Example 44, 2-(1-(cyclohexylmethoxy)-4-hydroxy-2-oxo-1,2-dihydroquinoline-3-carboxamido)acetic acid] | 16.1 | – |
| C[C@H](NC(=O)c1c(O)c2ccccc2n(OCC2CC2)c1=O)C(=O)O [Example 45, (S)-2-(1-(cyclopropylmethoxy)-4-hydroxy-2-oxo-1,2-dihydroquinoline-3-carboxamido)propanoic acid] | 15.7 | – |
| O=C(O)CNC(=O)c1c(O)c2cncnc2n(OCc2c(F)cccc2F)c1=O [Example 46, 2-(8-((2,6-difluorobenzyl)oxy)-5-hydroxy-7-oxo-7,8-dihydropyrido[2,3-d]pyrimidine-6-carboxamido)acetic acid] | 14.2 | – |
| O=C(N[C@H](C(=O)O)c1ccccc1)c1c(O)c2ccccc2n(OCC2CC2)c1=O [Example 47, (S)-2-(1-(cyclopropylmethoxy)-4-hydroxy-2-oxo-1,2-dihydroquinoline-3-carboxamido)-2-phenylacetic acid] | 14.2 | – |

| SMILES | Hemoglobin (g/dL) 20 mg/kg compound (C57 Mice [2]) [g/dL] | further results |
| --- | --- | --- |
| C=CCOn1c(=O)c(C(=O)NCC(=O)O)c(O)c2ccc(N3CCOCC3)cc21 [Example 48, 2-(1-(allyloxy)-4-hydroxy-7-morpholino-2-oxo-1,2-dihydroquinoline-3-carboxamido)acetic acid] | 13.9 | – |
| CC(C)(C)OC(=O)CNC(=O)c1c(O)c2ccccc2n(OCC2CC2)c1=O [Example 49, tert-butyl-2-(1-(cyclopropylmethoxy)-4-hydroxy-2-oxo-1,2-dihydroquinoline-3-carboxamido)acetate] | 14.1 | – |
| COC(=O)CNC(=O)c1c(O)c2ccccc2n(OCC2CC2)c1=O [Example 53, methyl-2-(1-(cyclopropylmethoxy)-4-hydroxy-2-oxo-1,2-dihydroquinoline-3-carboxamido)acetate] | 15.2 | – |
| CC(C)C[C@H](NC(=O)c1c(O)c2ccccc2n(OCC2CC2)c1=O)C(=O)O [Example 54, (S)-2-(1-(cyclopropylmethoxy)-4-hydroxy-2-oxo-1,2-dihydroquinoline-3-carboxamido)-4-methylpentanoic acid] | 13.7 | – |
| CC(C)[C@H](NC(=O)c1c(O)c2ccccc2n(OCC2CC2)c1=O)C(=O)O [Example 55, (S)-2-(1-(cyclopropylmethoxy)-4-hydroxy-2-oxo-1,2-dihydroquinoline-3-carboxamido)-3-methylbutanoic acid] | 13 | – |
| O=C(O)CCNC(=O)c1c(O)c2ccccc2n(OCC2CC2)c1=O [Example 56, 3-(1-(cyclopropylmethoxy)-4-hydroxy-2-oxo-1,2-dihydroquinoline-3-carboxamido)propanoic acid] | 14.4 | – |
| O=C(N[C@@H](Cc1ccccc1)C(=O)O)c1c(O)c2ccccc2n(OCC2CC2)c1=O [Example 58, (S)-2-(1-(cyclopropylmethoxy)-4-hydroxy-2-oxo-1,2-dihydroquinoline-3-carboxamido)-3-phenylpropanoic acid] | 14 | – |
| O=C(O)CNC(=O)c1c(O)c2ccccc2n(OCc2ccccc2F)c1=O [Example 62, 2-(1-((2-fluorobenzyl)oxy)-4-hydroxy-2-oxo-1,2-dihydroquinoline-3-carboxamido)acetic acid] | – | EPO (ng/mL) oral gavage 50 mg/kg (C57 Mice [1]): 398 ng/mL |
| CCOn1c(=O)c(C(=O)NCC(=O)O)c(O)c2ccccc21 [Example 63, 2-(1-ethoxy-4-hydroxy-2-oxo-1,2-dihydroquinoline-3-carboxamido)acetic acid] | – | EPO (ng/mL) oral gavage 50 mg/kg (C57 Mice [1]): 539 ng/mL |
| COc1ccc(COn2c(=O)c(C(=O)NCC(=O)O)c(O)c3ccccc32)cc1 [Example 67, 2-(4-hydroxy-1-((4-methoxybenzyl)oxy)-2-oxo-1,2-dihydroquinoline-3-carboxamido)acetic acid] | – | EPO (ng/mL) oral gavage 50 mg/kg (C57 Mice [1]): 477 ng/mL |
| O=C(O)CNC(=O)c1c(O)c2ccccc2n(OCC(F)(F)F)c1=O [Example 69, 2-(4-hydroxy-2-oxo-1-(2,2,2-trifluoroethoxy)-1,2-dihydroquinoline-3-carboxamido)acetic acid] | 15.7 | – |
| O=C(O)CNC(=O)c1c(O)c2ccncc2n(OCC2CC2)c1=O [Example 70, 2-(1-(cyclopropylmethoxy)-4-hydroxy-2-oxo-1,2-dihydro-1,7-naphthyridine-3-carboxamido)acetic acid] | 13.9 | – |
| CCCOn1c(=O)c(C(=O)N[C@@H](C)C(=O)O)c(O)c2ccccc21 [Example 73, (S)-2-(4-hydroxy-2-oxo-1-propoxy-1,2-dihydroquinoline-3-carboxamido)propanoic acid] | 16.2 | – |
| O=C(O)CNC(=O)c1c(O)c2ccccc2n(OCC/C=C/C2CC2)c1=O [Example 76, 2-(1-((4-cyclopropylbut-3-en-1-yl)oxy)-4-hydroxy-2-oxo-1,2-dihydroquinoline-3-carboxamido)acetic acid] | 17.1 | – |
| CCCC(CCC)On1c(=O)c(C(=O)NCC(=O)O)c(O)c2ccccc21 [Example 77, 2-(1-(heptan-4-yloxy)-4-hydroxy-2-oxo-1,2-dihydroquinoline-3-carboxamido)acetic acid] | 15.5 | – |
| O=C(O)CNC(=O)c1c(O)c2sccc2n(OCC2CC2)c1=O [Example 79, 2-(4-(cyclopropylmethoxy)-7-hydroxy-5-oxo-4,5-dihydrothieno[3,2-b]pyridine-6-carboxamido)acetic acid] | 14.3 | – |
